According to ChEMBL document CHEMBL4483862, “Open-source discovery of chemical leads for next-generation chemoprotective antimalarials” (2018):

System: Plasmodium berghei
Test: Luciferase/luciferin-expressing antifolate-resistant parasites were used to infect a culture of HepG2 cells that were pre-incubated with compounds. Infected hepatocytes emit light due to the luciferase reaction. Assay results are presented as the percent inhibition of light emission compared to control. […]
Assay type: functional
Conditions: sporozoite; for IC90: read-out: LUCIFERASE INFECTION ASSAY - IC90

Row | SMILES | IC90 | also measured
1 | CC1C(c2ccccc2)N(C)C(c2ccccc2)CC1(O)c1ccc(F)cc1 (stereo not given) | > 8.01 µM | IC50 (PBLUC_HILL_SLOPE 3.61, PBLUC_R_SQUARED 0.228, read-out: LUCIFERASE INFECTION ASSAY - IC50): 7.47 µM
2 | COc1ccccc1N(C)S(=O)(=O)c1ccc(Cl)c(C(=O)Nc2cccc(C)n2)c1 | 2.83 µM | IC50 (PBLUC_HILL_SLOPE 3.61, PBLUC_R_SQUARED 0.716, read-out: LUCIFERASE INFECTION ASSAY - IC50): 1.54 µM
3 | COc1cccc(-c2cc3c(Nc4cccnc4)nccc3[nH]2)c1 | > 10 µM | IC50 (PBLUC_HILL_SLOPE 3.56, PBLUC_R_SQUARED 0.0884, read-out: LUCIFERASE INFECTION ASSAY - IC50): 9.12 µM
4 | CC(=O)c1cccc(-c2cnc3cnc(-c4cccnc4)cn23)c1 | > 10.5 µM | IC50 (PBLUC_HILL_SLOPE 3.62, PBLUC_R_SQUARED 0.754, read-out: LUCIFERASE INFECTION ASSAY - IC50): 6.77 µM
5 | CN(C)c1cccc(-c2cnc3cnc(-c4ccc(CO)cc4)cn23)c1 | > 9.58 µM | IC50 (PBLUC_HILL_SLOPE 3.53, PBLUC_R_SQUARED 0.408, read-out: LUCIFERASE INFECTION ASSAY - IC50): 6.91 µM
6 | COc1cccc(-c2cc3c(Nc4cccc(N(C)C)c4)nccc3n2C)c1 | 8.25 µM | IC50 (PBLUC_HILL_SLOPE 3.57, PBLUC_R_SQUARED 0.3, read-out: LUCIFERASE INFECTION ASSAY - IC50): 4.46 µM
7 | CC(NC(=O)c1ccccc1NC(=O)CN1CCN(C/C=C/c2ccccc2)CC1)c1ccccc1 (stereo not given) | 8.52 µM | IC50 (PBLUC_HILL_SLOPE 3.6, PBLUC_R_SQUARED 0.261, read-out: LUCIFERASE INFECTION ASSAY - IC50): 4.62 µM
8 | CNC(=O)c1ccc(CN(C2CC2)S(=O)(=O)c2ccc(Br)s2)cc1 | > 10 µM | IC50 (PBLUC_HILL_SLOPE 3.54, PBLUC_R_SQUARED 0.19, read-out: LUCIFERASE INFECTION ASSAY - IC50): 5.83 µM
9 | CSc1c(-c2ccc(Cl)cc2)[nH]c2ccccc12 | > 12.1 µM | IC50 (PBLUC_HILL_SLOPE 3.51, PBLUC_R_SQUARED 0.189, read-out: LUCIFERASE INFECTION ASSAY - IC50): 11.1 µM
10 | O=C(c1ccco1)N1CCN(c2nc(-c3ccsc3)nc3ccccc23)CC1 | > 10 µM | IC50 (PBLUC_HILL_SLOPE 3.55, PBLUC_R_SQUARED 0.0384, read-out: LUCIFERASE INFECTION ASSAY - IC50): 7.3 µM
11 | Cc1ccc(C)c(-n2nnnc2SCC(=O)NC(=O)NC23CC4CC(CC(C4)C2)C3)c1 | 9.88 µM | IC50 (PBLUC_HILL_SLOPE 3.63, PBLUC_R_SQUARED 0.524, read-out: LUCIFERASE INFECTION ASSAY - IC50): 5.39 µM
12 | CN(C)CCCOc1ccc(-c2nnc3ccc(-c4cccc(OC(F)(F)F)c4)cn23)cc1 | > 10 µM | IC50 (PBLUC_HILL_SLOPE 3.54, PBLUC_R_SQUARED 0.437, read-out: LUCIFERASE INFECTION ASSAY - IC50): 7.74 µM
13 | N#CCCN(Cc1ccco1)C(=O)Cn1ncc(Cl)c(Cl)c1=O | > 10 µM | IC50 (PBLUC_HILL_SLOPE 3.57, PBLUC_R_SQUARED 0.442, read-out: LUCIFERASE INFECTION ASSAY - IC50): 8.27 µM
14 | O=C(Nc1nc2ccccn2c1C(=O)NC1CCCC1)c1c(F)cccc1F | > 8.59 µM | IC50 (PBLUC_HILL_SLOPE 3.61, PBLUC_R_SQUARED 0.639, read-out: LUCIFERASE INFECTION ASSAY - IC50): 6.29 µM
15 | Cc1cccc(C(=O)Nc2nc3ccc(C)cn3c2C(=O)NC2CCCC2)c1 | 7.46 µM | IC50 (PBLUC_HILL_SLOPE 3.54, PBLUC_R_SQUARED 0.461, read-out: LUCIFERASE INFECTION ASSAY - IC50): 4.01 µM
16 | COc1ccc(Cn2c(C3CC(=O)N(C)C3)nc3ccccc32)cc1 (stereo not given) | > 9.84 µM | IC50 (PBLUC_HILL_SLOPE 3.53, PBLUC_R_SQUARED 0.0667, read-out: LUCIFERASE INFECTION ASSAY - IC50): 8.05 µM
17 | O=c1cc(Nc2ccc(F)cc2)c2ccccc2o1 | 12.8 µM | IC50 (PBLUC_HILL_SLOPE 3.61, PBLUC_R_SQUARED 0.0806, read-out: LUCIFERASE INFECTION ASSAY - IC50): 6.97 µM
18 | Cc1cc(C)c(NC(=O)C(=O)NC(C)C)c(C)c1 | 11 µM | IC50 (PBLUC_HILL_SLOPE 3.55, PBLUC_R_SQUARED 0.214, read-out: LUCIFERASE INFECTION ASSAY - IC50): 5.93 µM
19 | CC(C)(C)c1ccc(C2=NNC(=NCCCN3CCOCC3)SC2)cc1 | 9.2 µM | IC50 (PBLUC_HILL_SLOPE 3.6, PBLUC_R_SQUARED 0.412, read-out: LUCIFERASE INFECTION ASSAY - IC50): 5 µM
20 | CN(CC(=O)Nc1ccc(-c2nc3ccccc3[nH]2)cc1)S(=O)(=O)c1cccs1 | > 10 µM | IC50 (PBLUC_HILL_SLOPE 3.6, PBLUC_R_SQUARED 0.614, read-out: LUCIFERASE INFECTION ASSAY - IC50): 8.33 µM

Row | SMILES | IC90 | also measured
21 | CNC(=O)CN(C)Cc1c(O)c(C(=O)NCc2ccccc2)cc2ccccc12 | > 10 µM | IC50 (PBLUC_HILL_SLOPE 3.62, PBLUC_R_SQUARED 0.233, read-out: LUCIFERASE INFECTION ASSAY - IC50): 8.75 µM
22 | CC(=O)c1ccccc1NC(=O)CNc1ccccc1N(C)Cc1ccccc1 | > 10 µM | IC50 (PBLUC_HILL_SLOPE 3.51, PBLUC_R_SQUARED 0.275, read-out: LUCIFERASE INFECTION ASSAY - IC50): 8.09 µM
23 | CC1CCC(C(C)C)C(OCC(=O)NCc2ccc(NC(=O)c3ccco3)cc2)C1 (stereo not given) | > 10 µM | IC50 (PBLUC_HILL_SLOPE 3.59, PBLUC_R_SQUARED 0.694, read-out: LUCIFERASE INFECTION ASSAY - IC50): 6.09 µM
24 | C=CCn1c(N)c(-c2nc3ccccc3[nH]2)c2nc3ccccc3nc21 | > 9.69 µM | IC50 (PBLUC_HILL_SLOPE 3.6, PBLUC_R_SQUARED 0.636, read-out: LUCIFERASE INFECTION ASSAY - IC50): 5.99 µM
25 | Cc1cc(C)cc(-n2nc(C)c3c2NC(=O)CC3c2ccc3c(c2)OCO3)c1 (stereo not given) | > 8.79 µM | IC50 (PBLUC_HILL_SLOPE 3.57, PBLUC_R_SQUARED 0.259, read-out: LUCIFERASE INFECTION ASSAY - IC50): 7.56 µM
26 | COc1ccc(C(NCC(=O)Nc2sccc2C(N)=O)c2ccccc2)cc1 (stereo not given) | > 10 µM | IC50 (PBLUC_HILL_SLOPE 3.52, PBLUC_R_SQUARED 0.517, read-out: LUCIFERASE INFECTION ASSAY - IC50): 5.37 µM
27 | OCc1ccc(-c2cnc3cnc(-c4ccsc4)cn23)cc1 | 8.46 µM | IC50 (PBLUC_HILL_SLOPE 3.6, PBLUC_R_SQUARED 0.458, read-out: LUCIFERASE INFECTION ASSAY - IC50): 4.59 µM
28 | COc1ccccc1-c1nc2ccc(NC(=O)Nc3ccc(OC(F)(F)F)cc3)cn2n1 | > 10 µM | IC50 (PBLUC_HILL_SLOPE 3.5, PBLUC_R_SQUARED 0.389, read-out: LUCIFERASE INFECTION ASSAY - IC50): 7.37 µM
29 | O=C1C(=C2NN=NN2c2ccc(-c3ccccc3)cc2)C=Nc2ccccc21 | > 9.03 µM | IC50 (PBLUC_HILL_SLOPE 3.52, PBLUC_R_SQUARED 0.301, read-out: LUCIFERASE INFECTION ASSAY - IC50): 6.48 µM
30 | COc1ccccc1CNc1ncnc2scc(-c3ccccc3)c12 | > 10 µM | IC50 (PBLUC_HILL_SLOPE 3.56, PBLUC_R_SQUARED 0.13, read-out: LUCIFERASE INFECTION ASSAY - IC50): 5.66 µM
31 | CCOc1ccc(C(C)=O)cc1CSc1nc2ccccc2n1-c1cccc(C)c1 | > 10 µM | IC50 (PBLUC_HILL_SLOPE 3.51, PBLUC_R_SQUARED 0.141, read-out: LUCIFERASE INFECTION ASSAY - IC50): 7.59 µM
32 | COc1cccc(Oc2ccc(C(F)(F)F)cc2NC(=O)c2ccc(NC(=O)C3CC3)s2)c1 | > 10 µM | IC50 (PBLUC_HILL_SLOPE 3.5, PBLUC_R_SQUARED 0.215, read-out: LUCIFERASE INFECTION ASSAY - IC50): 6.65 µM
33 | Cc1ccc(CNC(=O)c2ccc(CN3CCc4ccccc4C3)cc2)cc1 | > 8.91 µM | IC50 (PBLUC_HILL_SLOPE 3.55, PBLUC_R_SQUARED 0.838, read-out: LUCIFERASE INFECTION ASSAY - IC50): 6.04 µM
34 | COC(=O)c1cc(NC(=O)C(C)(C)Oc2ccc(Cl)cc2)ccc1F | > 10 µM | IC50 (PBLUC_HILL_SLOPE 3.63, PBLUC_R_SQUARED 0.0477, read-out: LUCIFERASE INFECTION ASSAY - IC50): > 10 µM
35 | CN(C)CCNC(=O)c1ccc(-c2cn3c(-c4cccc(OC(F)(F)F)c4)cnc3cn2)cc1 | > 7.03 µM | IC50 (PBLUC_HILL_SLOPE 3.61, PBLUC_R_SQUARED 0.27, read-out: LUCIFERASE INFECTION ASSAY - IC50): 5.86 µM
36 | Cc1nc2c3c(C)c(C)n(Cc4ccccc4)c3ncn2n1 | > 11.3 µM | IC50 (PBLUC_HILL_SLOPE 3.56, PBLUC_R_SQUARED 0.538, read-out: LUCIFERASE INFECTION ASSAY - IC50): 9.25 µM
37 | COc1ccc(C(CNC(=O)c2cc3cc(Br)ccc3[nH]2)N2CCCC2)cc1 (stereo not given) | > 10 µM | IC50 (PBLUC_HILL_SLOPE 3.58, PBLUC_R_SQUARED 0.137, read-out: LUCIFERASE INFECTION ASSAY - IC50): > 10 µM
38 | O=C(NC1CC1)c1ccc(-c2cnn3c(NCc4ccc(F)cc4)ccnc23)cc1 | > 8.22 µM | IC50 (PBLUC_HILL_SLOPE 3.6, PBLUC_R_SQUARED 0.311, read-out: LUCIFERASE INFECTION ASSAY - IC50): 4.82 µM
39 | Fc1ccc(-c2cnc3cnc(-c4ccccc4Cl)cn23)cc1Cl | > 9.21 µM | IC50 (PBLUC_HILL_SLOPE 3.59, PBLUC_R_SQUARED 0.419, read-out: LUCIFERASE INFECTION ASSAY - IC50): 8.08 µM
40 | Cc1cc(C)cc(NC(=S)NCCCCN2CCN(c3cccc(Cl)c3)CC2)c1 | > 7.66 µM | IC50 (PBLUC_HILL_SLOPE 3.55, PBLUC_R_SQUARED 0.0766, read-out: LUCIFERASE INFECTION ASSAY - IC50): 7.54 µM
